# How the values were obtained:
# [1] = system: supernatants from the LasB-deficient P. aeruginosa mutants; conditions: P1[Tb]: 0.5 mM probe, 50 mM CaCl2, HEPES buffer, 9 µL supernatant, RT, 1 h before injection
# [2] = system: supernatants from P. aeruginosa mutant strains deficient in LasB (LasB1, LasB2); conditions: pH 8
substance,measurement,setting,value
EGLAEW [P1[Tb]],integrity of probe with LasB-deficient P. aeruginosa supernatants (HPLC-MS),[1],remained intact
same,change of luminescence over time with LasB-deficient P. aeruginosa supernatants,[2],no changes in the luminescence
